{"source": "patent US20250231185A1", "about": "“Coronavirus T Cell Epitopes, Megapools and Uses Thereof” (La Jolla Institute for Immunology, priority 2021, published 2025)", "origin": "cited, not measured here"}
{"system": "CD8+ T cells", "conditions": "SARS-CoV-2-derived CD8 epitopes; dominant = recognized by 3 or more donors/different studies; cited from earlier work"}
{"substance": "660 (HTTDPSFLGRY) [compound 660]", "Dominant": "Yes (more dominant epitopes are defined by being recognized by 3 or more donors/different studies)"}
{"substance": "661 (TTDPSFLGRY) [compound 661]", "Dominant": "Yes (more dominant epitopes are defined by being recognized by 3 or more donors/different studies)"}
{"substance": "662 (TTDPSFLGRYM) [compound 662]", "Dominant": "Yes (more dominant epitopes are defined by being recognized by 3 or more donors/different studies)"}
{"substance": "670 (YLATALLTL) [compound 670]", "Dominant": "Yes (more dominant epitopes are defined by being recognized by 3 or more donors/different studies)"}
{"substance": "678 (SAPPAQYEL) [compound 678]", "Dominant": "Yes (more dominant epitopes are defined by being recognized by 3 or more donors/different studies)"}
{"substance": "683 (ITDVFYKENSY) [compound 683]", "Dominant": "Yes (more dominant epitopes are defined by being recognized by 3 or more donors/different studies)"}
{"substance": "687 (CTEIDPKLDNY) [compound 687]", "Dominant": "Yes (more dominant epitopes are defined by being recognized by 3 or more donors/different studies)"}
{"substance": "696 (FADDLNQLTGY) [compound 696]", "Dominant": "Yes (more dominant epitopes are defined by being recognized by 3 or more donors/different studies)"}
{"system": "CD8+ T cells", "conditions": "T cell subset (CD4 or CD8) recognizing the SARS-CoV-2-derived epitope; cited from earlier work"}
{"substance": "653 (HTQVVDMSMTY) [compound 653]", "Restriction": "CD8"}
{"substance": "654 (QVVDMSMTY) [compound 654]", "Restriction": "CD8"}
{"substance": "655 (MSMTYGQQF) [compound 655]", "Restriction": "CD8"}
{"substance": "656 (KPHNSHEGKTF) [compound 656]", "Restriction": "CD8"}
{"substance": "657 (LRVEAFEYY) [compound 657]", "Restriction": "CD8"}
{"substance": "658 (FEYYHTTDPSF) [compound 658]", "Restriction": "CD8"}
{"substance": "659 (HTTDPSFLGR) [compound 659]", "Restriction": "CD8"}
{"substance": "660 (HTTDPSFLGRY) [compound 660]", "Restriction": "CD8"}
{"substance": "661 (TTDPSFLGRY) [compound 661]", "Restriction": "CD8"}
{"substance": "662 (TTDPSFLGRYM) [compound 662]", "Restriction": "CD8"}
{"substance": "663 (FLGRYMSAL) [compound 663]", "Restriction": "CD8"}
{"substance": "664 (YMSALNHTK) [compound 664]", "Restriction": "CD8"}
{"substance": "665 (MSALNHTKK) [compound 665]", "Restriction": "CD8"}
{"substance": "666 (MSALNHTKKW) [compound 666]", "Restriction": "CD8"}
{"substance": "667 (SALNHTKKW) [compound 667]", "Restriction": "CD8"}
{"substance": "668 (WKYPQVNGL) [compound 668]", "Restriction": "CD8"}
{"substance": "669 (YPQVNGLTSI) [compound 669]", "Restriction": "CD8"}
{"substance": "670 (YLATALLTL) [compound 670]", "Restriction": "CD8"}
{"substance": "672 (ARAGEAANF) [compound 672]", "Restriction": "CD8"}
{"substance": "673 (GEAANFCAL) [compound 673]", "Restriction": "CD8"}
{"substance": "675 (LGDVRETMSY) [compound 675]", "Restriction": "CD8"}
{"substance": "676 (VRETMSYLF) [compound 676]", "Restriction": "CD8"}
{"substance": "677 (VMYMGTLSY) [compound 677]", "Restriction": "CD8"}
{"substance": "678 (SAPPAQYEL) [compound 678]", "Restriction": "CD8"}
{"substance": "679 (FTCASEYTGNY) [compound 679]", "Restriction": "CD8"}
{"substance": "681 (YTGNYQCGHY) [compound 681]", "Restriction": "CD8"}
{"substance": "683 (ITDVFYKENSY) [compound 683]", "Restriction": "CD8"}
{"substance": "684 (DVFYKENSY) [compound 684]", "Restriction": "CD8"}
{"substance": "686 (YTTTIKPVTY) [compound 686]", "Restriction": "CD8"}
{"substance": "687 (CTEIDPKLDNY) [compound 687]", "Restriction": "CD8"}
{"substance": "688 (TEIDPKLDNYY) [compound 688]", "Restriction": "CD8"}
{"substance": "689 (EIDPKLDNY) [compound 689]", "Restriction": "CD8"}
{"substance": "690 (NYYKKDNSY) [compound 690]", "Restriction": "CD8"}
{"substance": "691 (YYKKDNSY) [compound 691]", "Restriction": "CD8"}
{"substance": "692 (YYKKDNSYF) [compound 692]", "Restriction": "CD8"}
{"substance": "694 (ASFDNFKFV) [compound 694]", "Restriction": "CD8"}
{"substance": "695 (KFADDLNQL) [compound 695]", "Restriction": "CD8"}
{"substance": "696 (FADDLNQLTGY) [compound 696]", "Restriction": "CD8"}
{"substance": "697 (ASRELKVTF) [compound 697]", "Restriction": "CD8"}
{"substance": "698 (DVVAIDYKHY) [compound 698]", "Restriction": "CD8"}
{"substance": "699 (VVAIDYKHY) [compound 699]", "Restriction": "CD8"}
{"system": "CD8+ T cells", "conditions": "T cell type (CD4 or CD8) recognizing the SARS-CoV-2 epitope; cited from earlier work"}
{"substance": "900 (TYKNTCDGTTF) [compound 900]", "Restriction": "CD8"}
{"substance": "902 (TFTYASALW) [compound 902]", "Restriction": "CD8"}
{"substance": "907 (SEISMDNSPNL) [compound 907]", "Restriction": "CD8"}
{"substance": "908 (AWPLIVTAL) [compound 908]", "Restriction": "CD8"}
{"substance": "912 (SDGTGTIY) [compound 912]", "Restriction": "CD8"}
{"substance": "915 (GPKVKYLYF) [compound 915]", "Restriction": "CD8"}
{"substance": "916 (YLYFIKGLNNL) [compound 916]", "Restriction": "CD8"}
{"substance": "917 (YFIKGLNNL) [compound 917]", "Restriction": "CD8"}
{"substance": "918 (VPANSTVL) [compound 918]", "Restriction": "CD8"}
{"substance": "919 (VPANSTVLSF) [compound 919]", "Restriction": "CD8"}
{"substance": "921 (YLASGGQPI) [compound 921]", "Restriction": "CD8"}
{"substance": "923 (VVYRAFDIY) [compound 923]", "Restriction": "CD8"}
{"substance": "924 (FDIYNDKVAGF) [compound 924]", "Restriction": "CD8"}
{"substance": "925 (KVAGFAKFL) [compound 925]", "Restriction": "CD8"}
{"substance": "926 (KVAGFAKFLK) [compound 926]", "Restriction": "CD8"}
{"substance": "927 (NLIDSYFVV) [compound 927]", "Restriction": "CD8"}
{"substance": "928 (YFVVKRHTF) [compound 928]", "Restriction": "CD8"}
{"substance": "929 (VPHISRQRL) [compound 929]", "Restriction": "CD8"}
{"substance": "932 (TLKEILVTY) [compound 932]", "Restriction": "CD8"}
